Assay results taken from patent US11339153B2, “Compounds useful in modulating the farnesoid X receptor and methods of making and using the same” (Inorbit Therapeutics AB, priority 2018, dated 2022).

How the values were obtained:
[1] = target: T1, Human FXR receptor (NR1H4) (Homo sapiens, UniProt Q96RI1); assay: Human Farnesoid X Receptor (NR1H4, FXR) Reporter Assay (Indigo Bioscience kit, luciferase); assay type: cell-based; settings: for EC50: Human FXR (NR1H4) reporter assay, 22-24 h incubation; for Efficacy (%): normalized to GW4064 set as 100%
T1 sequence (Q96RI1 1-486): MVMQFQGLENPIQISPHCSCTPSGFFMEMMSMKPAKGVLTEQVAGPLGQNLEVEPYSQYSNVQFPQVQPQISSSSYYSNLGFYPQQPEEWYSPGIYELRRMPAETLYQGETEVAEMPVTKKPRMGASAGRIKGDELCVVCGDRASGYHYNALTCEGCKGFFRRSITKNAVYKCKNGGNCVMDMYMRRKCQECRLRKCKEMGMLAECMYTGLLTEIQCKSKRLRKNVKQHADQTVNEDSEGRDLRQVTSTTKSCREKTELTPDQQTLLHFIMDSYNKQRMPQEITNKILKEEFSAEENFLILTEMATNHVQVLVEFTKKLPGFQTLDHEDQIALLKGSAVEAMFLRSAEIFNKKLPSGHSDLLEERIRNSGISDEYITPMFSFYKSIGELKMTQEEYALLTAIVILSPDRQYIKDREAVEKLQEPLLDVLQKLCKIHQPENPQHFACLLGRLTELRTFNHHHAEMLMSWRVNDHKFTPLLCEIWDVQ
Excerpt: Human Farnesoid X Receptor (NR1H4, FXR) Reporter Assay
Determination of a ligand mediated Ga14 promoter driven transactivation to quantify ligand binding mediated activation of FXR. A FXR Reporter Assay kit was purchased from Indigo Bioscience (#IB00601-32) to determine the potency and efficacy of compounds that can induce FXR activation. The nuclear receptor assay system utilizes non-human mammalian cells engineered to provide constitutive high level expression of Human FXR receptor (NR1H4), a ligand-dependent transcription factor. The reporter cells include luciferase reporter gene functionality linked to an FXR-response promoter. Quantifying changes in luciferase expression in the treated reporter cells provides a sensitive surrogate measure of the changes in FXR activity.
The reporter cells incorporate the cDNA encoding beetle luciferase, a protein that catalyses the mono-oxidation of D-luciferin in a Mg^2+ dependent reaction that consumes O2 and ATP as co-substrates, yielding the products Oxylucifern, AMP, PPi, CO2 and photon (light) emission. Luminescence intensity of the reaction is quantified using a luminometer, and is reported in terms of Relative Light Units (RLU's).
The assay was performed according to the manufacturer's instructions. In brief, the test compounds were weighed and dissolved in phosphate buffer solution as a 10 mM stock and diluted to the appropriate concentration using Compound Screening Medium (CSM). The frozen reporter cells were thawed and suspended in Cell Recovery Medium at 37° C. The compounds were then immediately added to the cell plate and the plate was placed into a 37° C., humidified CO2 incubator for 22-24 h. After incubation, the media was carefully removed, Luciferase detection solution was added and the plate read in a Luminometer. The data was calculated as per kit instructions, with increases in luminescence being directly proportional to increases in compound agonist activity.

[2] = Metabolism in human microsomes; assay type: in vitro ADME; settings: 37° C.; for % remaining @ 45 mins of incubation with UDPGA: co-factor UDPGA only; for % remaining @ 45 mins of incubation with UDPGA and NADPH: co-factors UDPGA and NADPH
Experimental: Metabolism in Human Microsomes
Microsomal mixes (247.5 μL) of human microsomes (1250 μL, 4 mg/ml), potassium phosphate buffer (1250 μL), alamethecin (12.5 μL, 5 mg/ml) and cofactors Nicotinamide Adenine Dinucleotide Phosphate NADPH (1250 μL, 4 mM)/uridine 5′-diphospho-glucuronic acid UDPGA (1250 μL, 4 mM) or UDPGA only were loaded onto a shaker for 10 minutes. The test compound (2.5 μL, 100 μM) was then separately added to both microsomal mixes (i.e., one mix with NADPH and one mix without NADPH), incubated at 37° C. and sampled at predetermined time points. Analysis was performed using a AB SCIEX QTRAP 4500 LC-MS/MS, a Kinetex C18, 50*4.6 mm, 5 μm column and eluting with 10 mM Ammonium Acetate/Methanol.
Table 2 summarizes the % of compound remaining after 45 minutes of incubation with human microsomes either in the presence of co-factors UDPGA and NADPH or UDPGA only.

[3] = Metabolic identification in hepatocytes (human); assay type: in vitro ADME
Experimental: (§1) Metabolic Identification in Hepatocytes.
(§2) A 10 mM stock of test compound from Example 4 (sodium 2-(3-((5-cyclopropyl-3-(2-(trifluoromethoxy)phenyl)isoxazol-4-yl)methoxy)-8-azabicyclo[3.2.1]octan-8-yl)-4-fluorobenzo[d]thiazole-6-sulfinate) was prepared in DMSO. 20 μM of final working stock was then prepared by diluting 4 μL of 10 mM stock in 1996 μL of Krebs-Hensleit buffer. 200 μL of hepatocyte cell suspension (2×10^6 cells/mL) was added to TPP 48 well plate and preincubated for 30 min@37° C. in incubator. 200 μL of 20 μM working stock of test compound was added to the cell suspension and incubated in an incubator on vibramax at a shaking speed of 500 rpm. For the 0 min sample, 25 μL of hepatocyte suspension was precipitated with 200 μL of acetonitrile and 25 μL of 20 μM test compound was added. The reaction was stopped at 15, 30, 60, 90, 120 min by precipitating 50 μL of incubation mixture with 200 μL of acetonitrile. The samples were vortexed for 5 min at 1200 rpm and centrifuged at 4000 rpm for 10 min. The supernatant was separated, diluted 2 fold with water and analysed using a HPLC (Shimadzu SIL HTS) and mass spectrometer (5500 Qtrap). Acetonitrile and 0.1% formic acid in Milli-q-water were used as the mobile phase, using a column of either Waters Xbridge C18, 250×3.0 mm, 5.0μ particle size or Phenomnex kinetex 5μ EVO C18 100 A, 50×4.6 mm 5.0μ particle size.
Table 3 summarizes the major metabolites observed when the compound of Example 4 of the invention was incubated in human, dog or mouse hepatocytes.

[4] = Metabolic identification in hepatocytes (dog); assay type: in vitro ADME
Experimental: as §1
as §2, with “size. […]” for “size.”

[5] = Metabolic identification in hepatocytes (mouse); assay type: in vitro ADME
Experimental: as §1
as §2, with “size. […]” for “size.”

In the case of `O=S([O-])c1cc(F)c2nc(N3[C@@H]4CC[C@H]3C[C@@H](OCc3c(-c5ccccc5OC(F)(F)F)noc3C3CC3)C4)sc2c1.[Na+]` [Example 4, Sodium 2-(3-((5-cyclopropyl-3-(2-(trifluoromethoxy)phenyl)isoxazol-4-yl)methoxy)-8-azabicyclo[3.2.1]octan-8-yl)-4-fluorobenzo[d]thiazole-6-sulfinate], the EC50 [1] is reported as under 0.5 µM, the “Efficacy (%)” value [1] is reported as 94% and the “% remaining @ 45 mins of incubation with UDPGA” value [2] is reported as 94%. For the same compound, the “% remaining @ 45 mins of incubation with UDPGA and NADPH” value [2] was 52%, the Acyl-Glucuronide [3] was “No” and the “Observed Major Metabolites” value [3] was “Hydroxy, Alkenyl and Alkenyl-hydroxy”. The “major metabolites formed (MS/MS spectra, FIG. 1)” value ([3]; incubation for 120 mins) was “consistent with oxidative metabolism to give the corresponding hydroxy compound”, the Acyl-Glucuronide [4] was “No” and the “Observed Major Metabolites” value [4] was “Alkenyl-hydroxy”. The Acyl-Glucuronide [5] was “No” and the “Observed Major Metabolites” value [5] was “Hydroxy, Di-hydroxy and Alkenyl-hydroxy”.
With `O=S([O-])c1cccc(N2CC(O)(c3ccc(OCc4c(-c5c(Cl)cccc5Cl)noc4C4CC4)cc3Cl)C2)c1.[Na+]` [Example 6, Sodium 3-(3-(2-chloro-4-((5-cyclopropyl-3-(2,6-dichlorophenyl)isoxazol-4-yl)methoxy)phenyl)-3-hydroxyazetidin-1-yl)benzenesulfinate] the EC50 [1] was over 5 µM, the “Efficacy (%)” value [1] was 96% and the “% remaining @ 45 mins of incubation with UDPGA” value [2] was 92%. For the same compound, the “% remaining @ 45 mins of incubation with UDPGA and NADPH” value [2] was 26%.
For `O=S(O)c1ccc(C2CC(O)(c3ccc(OCc4c(-c5c(Cl)cccc5Cl)noc4C4CC4)cc3Cl)C2)cc1` (stereo not drawn) [Example 7, Sodium 4-(3-(2-chloro-4-((5-cyclopropyl-3-(2,6-dichlorophenyl)isoxazol-4-yl)methoxy)phenyl)-3-hydroxycyclobutyl)benzenesulfinic acid], the EC50 [1] was over 5 µM, the “Efficacy (%)” value [1] was 89% and the “% remaining @ 45 mins of incubation with UDPGA” value [2] was 95%. The “% remaining @ 45 mins of incubation with UDPGA and NADPH” value [2] was 38%.
In the case of `O=S(O)c1ccc(C2CC2c2ccc(OCc3c(-c4c(Cl)cccc4Cl)noc3C3CC3)cc2Cl)cc1` (stereo not drawn) [Example 8, Sodium 4-(2-(2-chloro-4-((5-cyclopropyl-3-(2,6-dichlorophenyl)isoxazol-4-yl)methoxy)phenyl)cyclopropyl)benzenesulfinate], the EC50 [1] is reported as 0.5 to 5 µM and the “Efficacy (%)” value [1] is reported as 127%.
